Measured values taken from BindingDB's records for doi:10.7270/Q28G8J4C (Broad Institute, 2009).
Where a name gives a salt, the structure may show the parent alone.

Target: T1, POsterior Segregation (Caenorhabditis elegans, UniProt G5EF15)
T1 sequence (G5EF15 whole entry): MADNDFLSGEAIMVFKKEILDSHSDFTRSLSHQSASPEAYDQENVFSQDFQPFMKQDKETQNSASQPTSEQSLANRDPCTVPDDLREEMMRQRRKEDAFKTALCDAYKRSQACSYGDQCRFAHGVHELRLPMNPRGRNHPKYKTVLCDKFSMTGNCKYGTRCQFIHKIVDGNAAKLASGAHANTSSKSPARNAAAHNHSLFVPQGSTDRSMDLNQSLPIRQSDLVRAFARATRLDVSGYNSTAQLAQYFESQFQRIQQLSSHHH
Experiment: disruptors of C. elegans POS-1 RNA interaction – biochemical, fluorescence polarization, dose response (AID 1964)

Cc1cc(CN=Nc2ccc([N+](=O)[O-])cn2)c(C)n1-c1ccc(C(=O)O)cc1 [4-{2,5-dimethyl-3-[2-(5-nitro-2-pyridinyl)carbonohydrazonoyl]-1H-pyrrol-1-yl}benzoic acid] was tested, and the EC50 was > 300 µM.
In the case of Cc1sc2ncnc(N=NC(C)c3ccccn3)c2c1C (stereo not drawn) [5,6-dimethyl-N-(1-pyridin-2-ylethylideneamino)thieno[2,3-d]pyrimidin-4-amine], the EC50 is reported as 23.3 µM.
Fc1ccc(C2=Nc3ncnn3C(c3ccco3)C2)cc1 (stereo not drawn) [5-(4-fluorophenyl)-7-(2-furanyl)-1,7-dihydro-[1,2,4]triazolo[1,5-a]pyrimidine] was tested, and the EC50 was 14.7 µM.
NC(=NNC=c1ccc(=C2C=CC(=O)C(C(=O)O)=C2)o1)N[N+](=O)[O-] [5-(5-{2-[amino(nitroimino)methyl]carbonohydrazonoyl}-2-furyl)-2-hydroxybenzoic acid] was tested, and the EC50 was 29.9 µM.
With c1ccc(C2=Nc3nnnn3C(c3cccs3)C2)cc1 (stereo not drawn) [5-Phenyl-7-thiophen-2-yl-4,7-dihydro-tetrazolo[1,5-a]pyrimidine] the EC50 was > 300 µM.
COc1cc(CN=Nc2[nH]c(=O)nnc2C)ccc1O [5-[2-[(E)-(3-methoxy-4-oxocyclohexa-2,5-dien-1-ylidene)methyl]hydrazinyl]-6-methyl-2H-1,2,4-triazin-3-one] gave an EC50 of 56.8 µM.
For COC1=CC(CN=Nc2[nH]c(=O)nnc2C)C=C([N+](=O)[O-])C1=O (stereo not drawn) [5-[[(E)-(3-methoxy-5-nitro-4-oxo-1-cyclohexa-2,5-dienylidene)methyl]hydrazo]-6-methyl-2H-1,2,4-triazin-3-one], the EC50 was 7.98 µM.
O=C1N=c2ccc(Br)cc2=C1NNc1nnn[nH]1 [5-bromanyl-3-[2-(2H-1,2,3,4-tetrazol-5-yl)hydrazinyl]indol-2-one] gave an EC50 of 14 µM.
Cc1ncc(C=O)c(CNNC(=O)c2cc(Br)ccc2O)c1O [5-bromanyl-N'-[(Z)-[5-(hydroxymethyl)-2-methyl-3-oxidanylidene-pyridin-4-ylidene]methyl]-2-oxidanyl-benzohydrazide] was tested, and the EC50 was > 300 µM.
In the case of Cc1cccc(NNC2=c3cc(Br)ccc3=NC2=O)c1 [5-bromo-3-[2-(3-methylphenyl)hydrazinyl]indol-2-one], the EC50 is reported as 68.3 µM.
For Cc1ccc(N/N=C2/C(=O)Nc3ccc(F)cc32)cc1 [5-fluoro-3-[2-(4-methylphenyl)hydrazono]indolin-2-one], the EC50 was > 300 µM.
COc1cccc(C2C3CN(C)CCC3=C(C#N)C(=N)C2(C#N)C#N)c1OC (stereo not drawn) [6-Amino-8-(2,3-dimethoxy-phenyl)-2-methyl-2,3,8,8a-tetrahydro-1H-isoquinoline-5,7,7-tricarbonitrile] showed an EC50 of 2.18 µM.
For CCCN1CCC2=C(C#N)C(=N)C(C#N)(C#N)C(c3cc(OC)ccc3OC)C2C1 (stereo not drawn) [6-Amino-8-(2,5-dimethoxy-phenyl)-2-propyl-2,3,8,8a-tetrahydro-1H-isoquinoline-5,7,7-tricarbonitrile], the EC50 was 27.9 µM.
N#CC1=C2CCOCC2C(c2cccnc2)C(C#N)(C#N)C1=N (stereo not drawn) [6-Amino-8-pyridin-3-yl-8,8a-dihydro-1H,3H-isochromene-5,7,7-tricarbonitrile] was tested, and the EC50 was > 300 µM.
Molecule O=C(Cc1nc2cc([N+](=O)[O-])ccc2[nH]c1=O)c1ccccc1 [6-Nitro-3-(2-oxo-2-phenyl-ethylidene)-3,4-dihydro-1H-quinoxalin-2-one] has an EC50 of 20.1 µM.
With CN1CCC2=C(C#N)C(=N)C(C#N)(C#N)C(c3ccncc3)C2C1 (stereo not drawn) [6-amino-2-methyl-8-(4-pyridyl)-1,3,8,8a-tetrahydroisoquinoline-5,7,7-tricarbonitrile] the EC50 was 52.9 µM.
For CCOC(=O)C1=C(C)OC(=N)C(C#N)C1c1ccc(O)c(OC)c1 (stereo not drawn) [6-amino-5-cyano-4-(4-hydroxy-3-methoxyphenyl)-2-methyl-4H-pyran-3-carboxylic acid ethyl ester], the EC50 was > 300 µM.
With CN1CCC2=C(C#N)C(=N)C(C#N)(C#N)C(c3cccc(Cl)c3Cl)C2C1 (stereo not drawn) [6-azanyl-8-[2,3-bis(chloranyl)phenyl]-2-methyl-1,3,8,8a-tetrahydroisoquinoline-5,7,7-tricarbonitrile] the EC50 was 14.4 µM.
For CCC(C)N1C(=O)C(=CNNc2nc3c(c(=O)n(C)c(=O)n3C)n2C)C(=O)NC1=S (stereo not drawn) [8-[2-[(Z)-(1-butan-2-yl-4,6-dioxo-2-sulfanylidene-1,3-diazinan-5-ylidene)methyl]hydrazinyl]-1,3,7-trimethylpurine-2,6-dione], the EC50 was > 300 µM.
With O=NC1CC2(CC(N=O)C1N=O)OCCO2 (stereo not drawn) [9-(hydroxyamino)-8-nitroso-1,4-dioxaspiro[4.5]dec-8-en-7-one oxime] the EC50 was > 300 µM.
In the case of Cc1ccc(N=CC2Sc3ccccc3NC2=O)cc1 (stereo not drawn) [(2E)-2-(p-toluidinomethylene)-4H-1,4-benzothiazin-3-one], the EC50 is reported as > 300 µM.
CN(C)[C@@H]1C(=O)C(C(N)=O)C(=O)[C@@]2(O)C(=O)C3C(=O)c4c(O)cccc4[C@@](C)(O)[C@H]3[C@H](O)[C@@H]12 (stereo partly drawn) [(2E,4S,4aR,5S,5aR,6S,12aS)-2-[azanyl(oxidanyl)methylidene]-4-(dimethylamino)-6-methyl-5,6,10,11,12a-pentakis(oxidanyl)-4,4a,5,5a-tetrahydrotetracene-1,3,12-trione] showed an EC50 of 65.8 µM.
For COc1ccc(C=C2CCCC(C(=O)C(F)(F)F)C2=O)cc1OC (stereo not drawn) [(2E,6Z)-2-(3,4-dimethoxybenzylidene)-6-(2,2,2-trifluoro-1-hydroxyethylidene)cyclohexanone], the EC50 was > 300 µM.
In the case of CN(C)c1ccc(O)c2c1CC1CC3C(N(C)C)C(=O)C(C(N)=O)C(=O)[C@@]3(O)C(=O)C1C2=O (stereo partly drawn) [(2E,12aS)-2-[azanyl(oxidanyl)methylidene]-4,7-bis(dimethylamino)-10,11,12a-tris(oxidanyl)-4a,5,5a,6-tetrahydro-4H-tetracene-1,3,12-trione;hydrochloride], the EC50 is reported as > 300 µM.
For N#CC(C(=O)c1cc2ccccc2o1)c1nc2ccccc2s1 (stereo not drawn) [(2Z)-3-(1-benzofuran-2-yl)-2-(3H-1,3-benzothiazol-2-ylidene)-3-oxidanylidene-propanenitrile], the EC50 was > 300 µM.
C=c1cc(O)c(CN(C)C)c2oc(=Cc3ccco3)c(O)c12 [(2Z)-7-[(dimethylamino)methyl]-2-(furan-2-ylmethylidene)-6-hydroxy-4-methyl-1-benzofuran-3-one] gave an EC50 of 32.1 µM.
C[C@H]1c2cccc(O)c2C(=O)C2C(=O)[C@]3(O)C(=O)C(C(N)=O)C(=O)[C@@H](N(C)C)C3C(O)C21 (stereo partly drawn) [(2Z,4S,5S,6R,12aS)-2-[amino(hydroxy)methylidene]-4-(dimethylamino)-5,10,11,12a-tetrahydroxy-6-methyl-4a,5,5a,6-tetrahydro-4H-tetracene-1,3,12-trione;ethanol;hydrate;hydrochloride] was tested, and the EC50 was > 300 µM.
Molecule Cn1c2cc(=N)ccc-2c2ccc(N)cc2c1-c1ccccc1 [(3-amino-5-methyl-6-phenyl-phenanthridin-5-ium-8-yl)amine;bromide] has an EC50 of 13.5 µM.
Work on O=C1N=c2ccccc2=C1NNc1cccc(Cl)c1 [(3E)-1H-indole-2,3-dione 3-[(3-chlorophenyl)hydrazone]] yielded an EC50 of 125 µM.
With Cc1ccc2oc(=O)c(CC(=O)CC(C)C)nc2c1 [(3Z)-3-(2-keto-4-methyl-pentylidene)-6-methyl-4H-1,4-benzoxazin-2-one] the EC50 was > 300 µM.
COc1ccc(C(=O)CC2=NCC3c4ccccc4CCN3C2=O)cc1 (stereo not drawn) [(3Z)-3-[2-(4-methoxyphenyl)-2-oxidanylidene-ethylidene]-2,6,7,11b-tetrahydro-1H-pyrazino[2,1-a]isoquinolin-4-one] was tested, and the EC50 was > 300 µM.
In the case of Cc1ccc(C(=O)Cc2nc3ccccc3oc2=O)cc1 [(3Z)-3-[2-(4-methylphenyl)-2-oxidanylidene-ethylidene]-4H-1,4-benzoxazin-2-one], the EC50 is reported as > 300 µM.
Cc1ccc2oc(=O)c(CC(=O)c3cccs3)nc2c1 [(3Z)-3-[2-keto-2-(2-thienyl)ethylidene]-6-methyl-4H-1,4-benzoxazin-2-one] gave an EC50 of 21.3 µM.
Molecule Cc1ccc(C(=O)Cc2nc3cc(C)ccc3oc2=O)cc1 [(3Z)-3-[2-keto-2-(p-tolyl)ethylidene]-6-methyl-4H-1,4-benzoxazin-2-one] has an EC50 of 7.64 µM.
Cc1ccc(NC=C2SC(=O)c3ccccc32)c(C)c1 [(3Z)-3-[(2,4-dimethylanilino)methylene]isobenzothiophen-1-one] was tested, and the EC50 was > 300 µM.
O=C(Cc1nc2ccccc2n(-c2ccccc2)c1=O)c1ccccc1 [(3Z)-3-phenacylidene-1-phenyl-4H-quinoxalin-2-one] was tested, and the EC50 was 78.2 µM.
O=C(Cc1nc2cc(Cl)ccc2oc1=O)c1cccs1 [(3Z)-6-chloranyl-3-(2-oxidanylidene-2-thiophen-2-yl-ethylidene)-4H-1,4-benzoxazin-2-one] gave an EC50 of 230 µM.
With O=C(Cc1nc2cc(Cl)ccc2oc1=O)c1ccco1 [(3Z)-6-chloranyl-3-[2-(furan-2-yl)-2-oxidanylidene-ethylidene]-4H-1,4-benzoxazin-2-one] the EC50 was > 300 µM.
Cc1c(NC=C2C(=O)N(C)C(=O)c3ccccc32)c(=O)n(-c2ccccc2)n1C [(4E)-4-[[(1,5-dimethyl-3-oxo-2-phenyl-4-pyrazolyl)amino]methylidene]-2-methylisoquinoline-1,3-dione] was tested, and the EC50 was > 300 µM.
For COc1ccc(OC)c(N2C(=O)NC(=O)C(=Cc3c[nH]c4ccccc34)C2=O)c1 [(5E)-1-(2,5-dimethoxyphenyl)-5-(1H-indol-3-ylmethylene)pyrimidine-2,4,6(1H,3H,5H)-trione], the EC50 was > 300 µM.
With O=C1NC(=O)N(Cc2ccccc2Cl)C(=O)C1=CNc1ccc(F)cc1 [(5E)-1-(2-chlorobenzyl)-5-[(4-fluoroanilino)methylene]barbituric acid] the EC50 was > 300 µM.
With Cc1c(NC=C2C(=O)NC(=O)N(Cc3ccco3)C2=O)c(=O)n(-c2ccccc2)n1C [(5E)-1-(2-furfuryl)-5-[[(3-keto-1,5-dimethyl-2-phenyl-3-pyrazolin-4-yl)amino]methylene]barbituric acid] the EC50 was > 300 µM.
In the case of C=c1c(C(=O)OC)c(O)c(=Cc2cccs2)n1-c1ccc(Cl)cc1 [(5E)-1-(4-chlorophenyl)-2-methyl-4-oxo-5-(thiophen-2-ylmethylidene)-3-pyrrolecarboxylic acid methyl ester], the EC50 is reported as > 300 µM.
